# From US9364459B2, “3-(indolyl)- or 3-(azaindolyl)- 4-arylmaleimide derivatives for use in the treatment of colon and gastric adenocarcinoma” (Johannes Gutenberg-Universität Mainz, priority 2009, dated 2016)
# Tests used:
# HT-29 = experiment: Nicoletti apoptosis assay in HT-29 cells; assay type: cell-based, human; settings: for Sub-G1 Fraction: HT-29; for Activity in combination with irinotecan relative to compound A, in words: HT-29 cells
# Method: (§1) Nicoletti Apoptosis Assay by Cell Cycle Analysis
# (§2) Cancer cells were transferred to 12-well flat-bottomed plates. […] Subsequently, cells were incubated in 1 ml medium containing various concentrations of test compounds at 37° C. with 5% CO2. After incubation the cells were washed with PBS, trypsinized, pelleted and mixed with PI buffer (containing 0.1% sodium citrate, 0.1% triton X-100, […] propidium iodide (PI)) and incubated for 1 hour at 4° C. Cell cycle sub-G1 fraction analysis was performed as described previously (Nicoletti, I. et al. (1991) J. Immunol. Methods 139, 271-279) using a flow cytometer (BD FACS Calibur™, BD Biosciences, Heidelberg, Germany). Each experiment was done in triplicate.
# GSK-3β = GSK-3β (Homo sapiens (Human), UniProt P49841); experiment: GSK-3β kinase inhibition assay (Millipore IC50Profiler); assay type: biochemical; settings: for GSK-3β IC50 values, in words: Table 2
# Description: (§3) GSK-3β, VEGFR-2, FLT-3 Kinase Inhibition Assays
# (§4) Detailed protocols can be found at: www.millipore.com/drugdiscovery/dd3/assayprotocols.
# FLT-3 = FLT-3 (Homo sapiens (Human), UniProt P36888); experiment: FLT-3 kinase inhibition assay (Millipore IC50Profiler); assay type: biochemical; settings: for FLT-3 inhibition, in words: Table 2
# Method: as §3
# The effect of test compounds on the activity of the protein kinases GSK-3β, VEGFR-2 and FLT-3 was evaluated based on half maximal inhibitory concentration (IC50) values determined by Millipore UK Ltd; Gemini Crescent; Dundee Technology Park; Dundee DD2 1SW; UK (IC50Profiler). Detailed protocols can be found at: www.millipore.com/drugdiscovery/dd3/assayprotocols.
# VEGFR-2 = VEGFR-2 (Homo sapiens (Human), UniProt P35968); experiment: VEGFR-2 kinase inhibition assay (Millipore IC50Profiler); assay type: biochemical; settings: for VEGFR-2 IC50 values, in words: Table 2
# Description: as §3, §4
# [1] = system: chick embryo microvessel formation; experiment: Quantitative chick embryo in vivo assay of antiangiogenic activity; settings: Gallus gallus; 26 nM drug concentration/pellet; 24 hours incubation; read-out: Inhibition of microvessel area
# Method: Evaluation of Antiangiogenic Activity in a Quantitative Chick Embryo In Vivo Assay
# The inhibition of angiogenesis (new blood vessel formation) was measured as described in WO2006/061212.
# HUVEC = experiment: Nicoletti apoptosis assay (sub-G1 fraction) in HUVEC; assay type: cell-based, human; settings: 4 days, untreated 15.4 ± 1.5%
# Method: as §1, §2
# The same analysis was performed with HUVEC cells. 1.5×10^4 cells were plated into each well and treated with test compounds for 4 days.
# Human Umbilical Vein Endothelial Cells (HUVEC) known for mitogenic specifity for VEGF were obtained from the Department of Pathology, University Hospital of Mainz, Germany. The cells were cultured in M199 supplemented with 20% FCS, 1% Pen/Strep, 0.34% GlutaMAX-I, 25 μg/ml Endothelial Cell Growth Supplement (BD Biosciences), 25 μg/ml Heparin sodium (179 USP units/mg; Sigma, Germany) and were maintained at 37° C. and 5% CO2.
# [2] = system: HT-29 human colon adenocarcinoma cells; experiment: MTT viability assay in HT-29 cells; settings: HT-29, 72 h, read-out: Viability of HT-29 cells as determined by MTT assay
# Method: Evaluation of Effect on Viability (MTT Assay)
# The antiproliferative activity of test compounds was determined by the 3-(4,5-dimethylthiazol-2-yl)-2,5-diphenyltetrazolium bromide (MTT) assay as described previously (Mosmann, T. et al. (1983) J. Immunol. Methods 65, 55-63). Cells in the exponential growth phase were transferred to 96-well flat-bottom plates. 10,000 viable cells contained in 200 μl cell suspension were plated into each well and incubated over night. Cells were then exposed to various concentrations of test compounds (100 μl/well) for 3 days at 37° C. with 5% CO2. Subsequently, 10 μl/well MTT stock solution (5 mg/ml; Biomol, Germany) was added and the cells were incubated at 37° C. with 5% CO2 for 4 hours. 100 μl solubilization solution (10% SDS in 0.01 M HCl) was added and the cells were incubated at 37° C. with 5% CO2 over night. Plates were read on an ELISA-Reader ELX 800 (BIO-TEK Software KC 4) at 562 nm absorbance. Each experiment was done in triplicate.
# HCT-116, HT-29 and SW480 cells were cultured in RPMI1640 supplemented with 10% FCS. […] All cells were maintained at 37° C. and 5% CO2.
# [3] = Table 8, 7.9 μM test compound alone, drug-free control 3.4 ± 0.9%
# [4] = Table 8, 7.9 μM test compound plus 1.18 μM irinotecan
# Sequence of FLT-3 (P36888 27-993): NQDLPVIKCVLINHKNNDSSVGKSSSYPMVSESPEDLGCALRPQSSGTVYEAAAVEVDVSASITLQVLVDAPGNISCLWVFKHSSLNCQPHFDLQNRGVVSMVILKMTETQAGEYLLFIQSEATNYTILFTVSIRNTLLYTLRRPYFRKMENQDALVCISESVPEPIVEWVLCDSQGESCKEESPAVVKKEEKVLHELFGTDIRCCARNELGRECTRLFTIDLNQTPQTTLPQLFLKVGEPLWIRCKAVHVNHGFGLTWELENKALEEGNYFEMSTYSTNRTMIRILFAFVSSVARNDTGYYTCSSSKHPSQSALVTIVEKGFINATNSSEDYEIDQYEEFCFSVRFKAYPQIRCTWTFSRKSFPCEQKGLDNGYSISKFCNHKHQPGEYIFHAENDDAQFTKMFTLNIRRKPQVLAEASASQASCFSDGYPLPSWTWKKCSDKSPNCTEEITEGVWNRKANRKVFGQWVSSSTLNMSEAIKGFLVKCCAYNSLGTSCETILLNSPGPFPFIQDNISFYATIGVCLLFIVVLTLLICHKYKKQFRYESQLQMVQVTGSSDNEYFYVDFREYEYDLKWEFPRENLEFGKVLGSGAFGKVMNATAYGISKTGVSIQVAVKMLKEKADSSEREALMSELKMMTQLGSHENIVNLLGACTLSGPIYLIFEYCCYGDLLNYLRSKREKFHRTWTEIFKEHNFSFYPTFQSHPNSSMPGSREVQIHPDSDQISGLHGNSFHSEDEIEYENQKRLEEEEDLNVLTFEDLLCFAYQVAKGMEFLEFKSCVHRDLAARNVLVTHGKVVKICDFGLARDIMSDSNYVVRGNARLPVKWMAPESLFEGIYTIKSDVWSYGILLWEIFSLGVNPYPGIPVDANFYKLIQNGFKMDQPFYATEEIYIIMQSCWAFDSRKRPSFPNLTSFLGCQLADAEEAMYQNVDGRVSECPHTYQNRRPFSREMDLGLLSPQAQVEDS
# Sequence of VEGFR-2 (P35968 20-1356): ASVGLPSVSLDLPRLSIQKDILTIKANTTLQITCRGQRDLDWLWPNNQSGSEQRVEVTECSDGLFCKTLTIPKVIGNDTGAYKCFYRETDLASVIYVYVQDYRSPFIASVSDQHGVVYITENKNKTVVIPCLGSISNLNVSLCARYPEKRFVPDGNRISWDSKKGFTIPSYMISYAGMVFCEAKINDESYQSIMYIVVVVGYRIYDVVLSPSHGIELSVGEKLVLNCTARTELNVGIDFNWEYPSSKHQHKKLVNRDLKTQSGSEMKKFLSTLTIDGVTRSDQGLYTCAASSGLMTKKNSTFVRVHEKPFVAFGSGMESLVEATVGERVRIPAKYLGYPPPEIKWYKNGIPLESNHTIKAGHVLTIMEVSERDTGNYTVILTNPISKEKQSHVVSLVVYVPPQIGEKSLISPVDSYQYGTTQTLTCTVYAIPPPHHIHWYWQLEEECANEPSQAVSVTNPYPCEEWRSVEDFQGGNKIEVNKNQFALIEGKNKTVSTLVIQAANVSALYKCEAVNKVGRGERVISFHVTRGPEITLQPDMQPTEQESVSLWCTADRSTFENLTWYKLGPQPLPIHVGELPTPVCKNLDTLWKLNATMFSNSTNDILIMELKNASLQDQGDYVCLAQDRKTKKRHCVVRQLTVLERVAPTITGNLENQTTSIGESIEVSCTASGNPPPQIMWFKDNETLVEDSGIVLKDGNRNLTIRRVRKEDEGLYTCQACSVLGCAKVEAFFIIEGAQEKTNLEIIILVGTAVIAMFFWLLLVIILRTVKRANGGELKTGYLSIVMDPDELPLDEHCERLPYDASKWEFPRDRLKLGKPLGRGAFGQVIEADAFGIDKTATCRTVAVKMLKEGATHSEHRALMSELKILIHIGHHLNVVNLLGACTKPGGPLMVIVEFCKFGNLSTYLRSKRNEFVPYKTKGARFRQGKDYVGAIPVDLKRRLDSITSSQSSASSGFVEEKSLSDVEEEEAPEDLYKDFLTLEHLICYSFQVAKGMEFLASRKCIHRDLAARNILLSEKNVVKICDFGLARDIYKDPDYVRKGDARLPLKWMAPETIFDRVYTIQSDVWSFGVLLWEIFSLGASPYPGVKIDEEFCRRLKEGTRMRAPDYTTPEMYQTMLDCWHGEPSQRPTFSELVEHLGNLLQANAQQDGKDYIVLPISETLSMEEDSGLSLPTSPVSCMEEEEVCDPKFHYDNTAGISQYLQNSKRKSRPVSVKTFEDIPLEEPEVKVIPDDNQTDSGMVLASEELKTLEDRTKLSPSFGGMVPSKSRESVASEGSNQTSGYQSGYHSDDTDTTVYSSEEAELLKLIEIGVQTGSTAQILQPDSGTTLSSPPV
# Sequence of GSK-3β (P49841 whole entry): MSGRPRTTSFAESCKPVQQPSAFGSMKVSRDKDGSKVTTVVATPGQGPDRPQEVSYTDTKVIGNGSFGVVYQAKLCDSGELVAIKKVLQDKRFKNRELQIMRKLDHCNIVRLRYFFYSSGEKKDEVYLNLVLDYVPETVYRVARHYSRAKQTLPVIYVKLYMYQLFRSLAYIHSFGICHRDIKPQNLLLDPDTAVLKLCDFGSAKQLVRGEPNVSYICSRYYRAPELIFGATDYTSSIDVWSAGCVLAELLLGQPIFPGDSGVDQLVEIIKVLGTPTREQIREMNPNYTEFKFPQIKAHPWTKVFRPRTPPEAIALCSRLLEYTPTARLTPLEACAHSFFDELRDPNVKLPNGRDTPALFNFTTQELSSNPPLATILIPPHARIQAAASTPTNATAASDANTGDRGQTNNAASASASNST
Compound,melting point [°C],IC50 (GSK-3β) [µM],IC50 (FLT-3) [µM],IC50 (VEGFR-2) [µM],"GSK-3β IC50 values, in words (GSK-3β)",Sub-G1 Fraction (HT-29; [3]) [%],Sub-G1 Fraction (HT-29; [4]) [%],viability at 2.6 µM [2] [%],viability at 7.9 µM [2] [%],viability at 26 µM [2] [%],viability at 52 µM [2] [%],also measured
"COc1cc2c(Nc3ccc(Br)cc3F)ncnc2cc1OCC1CCN(C)CC1 [vandetanib, reference compound]",–,–,–,–,–,–,–,–,–,–,–,"Sub-G1 Fraction (HT-29; Table 9, 10 μM vandetanib plus 1.18 μM Irinotecan, 7 days): 35.2 ± 0.4%; Sub-G1 Fraction (HT-29; Table 9, single-agent treatment, 10 μM vandetanib, 7 days): 11.1 ± 1.9%"
"COc1cc(C2=C(c3c[nH]c4cnccc34)C(=O)NC2=O)cc(OC)c1OC [Compound C, 3-(6-Azaindol-3-yl)-4-(3,4,5-trimethoxyphenyl)-maleinimid]",–,< 0.01,1.9,0.048,low nanomolar range,79.9 ± 4.13,75.69 ± 1.77,30.4 ± 1.52,25.8 ± 3.52,12.7 ± 2.6,4.22 ± 0.44,"inhibition at 0.026 µM [1]: 32%; Sub-G1 Fraction (HUVEC; 0.79 μM): 48.0 ± 2.3%; Sub-G1 Fraction (HUVEC; 2.6 μM): 66.3 ± 1.0%; VEGFR-2 IC50 values, in words (VEGFR-2): low nanomolar range"
"COc1cc(C2=C(c3cn(CCCN)c4ccccc34)C(=O)NC2=O)cc(OC)c1OC.Cl [G, 3-(1-[3-Ammoniopropyl]-1H-indol-3-yl)-4-(3,4,5-trimethoxyphenyl)-maleinimide-chloride]",–,0.129,> 1,1.5,low nanomolar range,4.01 ± 0.66,56.01 ± 0.29,–,–,–,–,–
"COc1cc(C2=C(c3cn(CCO)c4ccccc34)C(=O)NC2=O)cc(OC)c1OC [H, 3-(1-[2-Hydroxyethyl]-1H-indol-3-yl)-4-(3,4,5-trimethoxyphenyl)-maleinimide]",195 to 196,–,0.554,–,low nanomolar range,8.08 ± 0.77,71.28 ± 3.51,–,–,–,–,"Activity in combination with irinotecan relative to compound A, in words (HT-29): even more potent than compound A"
"COc1cc(C2=C(c3cn(CCN)c4ccccc34)C(=O)NC2=O)cc(OC)c1OC.Cl [F, 3-(1-[2-Ammonioethyl]-1H-indol-3-yl)-4-(3,4,5-trimethoxyphenyl)-maleinimide-chloride]",–,0.195,0.227,1.89,low nanomolar range,5.69 ± 0.69,51.00 ± 0.56,–,–,–,–,"FLT-3 inhibition, in words (FLT-3): most significantly inhibited"
"COc1cc(C2=C(c3c[nH]c4cccnc34)C(=O)NC2=O)cc(OC)c1OC [E, 3-(4-Azaindol-3-yl)-4-(3,4,5-trimethoxyphenyl)-1H-pyrrol-2,5-dione]",274 to 275,0.215,1.52,0.373,–,4.22 ± 0.74,25.71 ± 1.97,114 ± 5.2,98.31 ± 0.9,92.6 ± 2.8,65.8 ± 1.5,–
"COc1cc(C2=C(c3c[nH]c4ccncc34)C(=O)NC2=O)cc(OC)c1OC [Compound D, 3-(5-Azaindol-3-yl)-4-(3,4,5-trimethoxyphenyl)-maleinimid]",–,0.05,6.27,0.023,low nanomolar range,21.51 ± 2.89,47.53 ± 0.47,62.21 ± 0.33,64.2 ± 0.76,39.6 ± 1.9,19.2 ± 0.26,"inhibition at 0.026 µM [1]: 69%; Sub-G1 Fraction (HUVEC; 0.79 μM): 25.7 ± 1.2%; Sub-G1 Fraction (HUVEC; 2.6 μM): 70.2 ± 2.7%; Sub-G1 Fraction (HUVEC; 7.9 μM): 79.9 ± 3.8%; VEGFR-2 IC50 values, in words (VEGFR-2): low nanomolar range"
"COc1cc(C2=C(c3c[nH]c4ncccc34)C(=O)NC2=O)cc(OC)c1OC [B, 3-(7-Azaindol-3-yl)-4-(3,4,5-trimethoxyphenyl)-maleinimid]",–,> 10,0.132,0.037,–,2.32 ± 1.16,22.36 ± 2.80,65 ± 2.16,45.5 ± 3.71,38.5 ± 0.99,38.1 ± 5.43,"inhibition at 0.026 µM [1]: 61%; Sub-G1 Fraction (HUVEC; 0.79 μM): 26.7 ± 1.9%; Sub-G1 Fraction (HUVEC; 2.6 μM): 49.2 ± 2.2%; Sub-G1 Fraction (HUVEC; 7.9 μM): 69.5 ± 3.4%; FLT-3 inhibition, in words (FLT-3): most significantly inhibited; VEGFR-2 IC50 values, in words (VEGFR-2): low nanomolar range"
"CCN(CC)CCNC(=O)c1c(C)[nH]c(/C=C2\C(=O)Nc3ccc(F)cc32)c1C [sunitinib, reference compound]",–,–,–,–,–,–,–,–,–,–,–,"Sub-G1 Fraction (HT-29; Table 9, 5 μM sunitinib plus 1.18 μM Irinotecan, 7 days): 24.5 ± 1.2%; Sub-G1 Fraction (HT-29; Table 9, single-agent treatment, 5 μM sunitinib, 7 days): 11.8 ± 1.0%"

# Continued, in another order:
melting point [°C],IC50 (GSK-3β) [µM],IC50 (FLT-3) [µM],IC50 (VEGFR-2) [µM],"GSK-3β IC50 values, in words (GSK-3β)",Compound,Sub-G1 Fraction (HT-29; [3]) [%],Sub-G1 Fraction (HT-29; [4]) [%],viability at 2.6 µM [2] [%],viability at 7.9 µM [2] [%],viability at 26 µM [2] [%],viability at 52 µM [2] [%],also measured
184 to 185,3.58,> 1,1.3,–,"COc1cc(C2=C(c3cn(CCN(C)C)c4ccccc34)C(=O)NC2=O)cc(OC)c1OC [J, 3-{1-[2-(Dimethylamino)ethyl]-1H-indol-3-yl}-4-(3,4,5-trimethoxyphenyl)-maleinimide]",2.50 ± 1.73,43.48 ± 1.87,–,–,–,–,–
–,> 1,1.53,> 10,–,"COc1cc(C2=C(c3cn(CCCN(C)C)c4ccccc34)C(=O)NC2=O)cc(OC)c1OC [K, 3-{1-[3-(Dimethylamino)propyl]-1H-indol-3-yl}-4-(3,4,5-trimethoxyphenyl) maleinimide]",3.17 ± 0.86,50.28 ± 1.31,–,–,–,–,–
–,3.24,> 10,2.83,–,"COc1cc(C2=C(c3cn(CCCN4CCN(C)CC4)c4ccccc34)C(=O)NC2=O)cc(OC)c1OC [N, 3-{1-[3-(4-Methylhexahydro-1-pyrazindiiumyl)propyl]-1H-indol-3-yl}-4-(3,4,5-trimethoxyphenyl)-maleinimide dichloride]",3.01 ± 0.40,49.49 ± 1.82,–,–,–,–,–
238 to 239,0.657,> 10,9.2,–,"COc1cc(C2=C(c3cn(CCN4CCOCC4)c4ccccc34)C(=O)NC2=O)cc(OC)c1OC [M, 3-{1-(2-morpholinoethyl)-1H-indol-3-yl}-4-(3,4,5-trimethoxyphenyl)-maleinimide]",10.01 ± 2.16,56.81 ± 3.96,–,–,–,–,–
179 to 180,> 1,1.24,1.21,–,"COc1cc(C2=C(c3cn(CCN4CCCCC4)c4ccccc34)C(=O)NC2=O)cc(OC)c1OC [L, 3-{1-[2-(piperidin-1-yl)ethyl]-1H-indol-3-yl}-4-(3,4,5-trimethoxyphenyl)-maleinimide]",4.64 ± 0.75,62.32 ± 1.63,–,–,–,–,"Activity in combination with irinotecan relative to compound A, in words (HT-29): even more potent than compound A"
259 to 262,–,–,–,–,"COc1cc(C2=C(c3c[nH]c4ccc(Br)cc34)C(=O)NC2=O)cc(OC)c1OC [P, 3-(5-Bromo-1H-indol-3-yl)-4-(3,4,5-trimethoxyphenyl)-maleinimide]",1.81 ± 0.36,55.00 ± 0.33,37.83 ± 0.19,20.6 ± 0.35,7.07 ± 1.37,8.68 ± 0.37,"Activity in combination with irinotecan relative to compound A, in words (HT-29): at least comparable with compound A; inhibition at 0.026 µM [1]: 35%; Sub-G1 Fraction (HUVEC; 0.79 μM): 24.0 ± 1.9%; Sub-G1 Fraction (HUVEC; 2.6 μM): 31.6 ± 2.0%; Sub-G1 Fraction (HUVEC; 7.9 μM): 54.4 ± 3.2%"
160,–,0.556,–,low nanomolar range,"COc1cc(C2=C(c3cn(CCCO)c4ccccc34)C(=O)NC2=O)cc(OC)c1OC [I, 3-(1-[3-Hydroxypropyl]-1H-indol-3-yl)-4-(3,4,5-trimethoxyphenyl)-maleinimide]",11.25 ± 0.11,65.71 ± 0.04,–,–,–,–,–
